According to ChEMBL document CHEMBL4229403, “Protein Arginine Methyltransferase 5 (PRMT5) as an Anticancer Target and Its Inhibitor Discovery” (J Med Chem, 2018):

How the values were obtained:
Maver1 [1] = assay: Antiproliferative activity against human Maver1 cells after 3 days by cell titer-glo luminescent cell viability assays; assay type: functional, cell-based; details: Maver1, 72 h
Z-138 [2] = assay: Antiproliferative activity against human Z138 cells after 3 days by cell titer-glo luminescent cell viability assays; assay type: functional, cell-based; details: Z-138, 72 h
JeKo-1 = assay: Antiproliferative activity against human JeKo1 cells after 3 days by cell titer-glo luminescent cell viability assays; assay type: functional, cell-based; details: JeKo-1, 72 h
[3] = Plasma concentration in po dosed Sprague-Dawley rat administered as single dose; assay type: ADME, organism-based; details: in vivo
[4] = Plasma concentration in iv dosed Sprague-Dawley rat administered as single dose; assay type: ADME, organism-based; details: in vivo
[5] = biological target: T1, Protein arginine N-methyltransferase 5 (Homo sapiens, UniProt O14744); assay: Inhibition of human 6xHis-tagged PRMT5 expressed in bacterial expression system using histone H2A as substrate after 2 hrs in presence of by S-[methyl-3H]adenosylmethionine by liquid scintillation counting
T1 sequence (O14744 whole entry): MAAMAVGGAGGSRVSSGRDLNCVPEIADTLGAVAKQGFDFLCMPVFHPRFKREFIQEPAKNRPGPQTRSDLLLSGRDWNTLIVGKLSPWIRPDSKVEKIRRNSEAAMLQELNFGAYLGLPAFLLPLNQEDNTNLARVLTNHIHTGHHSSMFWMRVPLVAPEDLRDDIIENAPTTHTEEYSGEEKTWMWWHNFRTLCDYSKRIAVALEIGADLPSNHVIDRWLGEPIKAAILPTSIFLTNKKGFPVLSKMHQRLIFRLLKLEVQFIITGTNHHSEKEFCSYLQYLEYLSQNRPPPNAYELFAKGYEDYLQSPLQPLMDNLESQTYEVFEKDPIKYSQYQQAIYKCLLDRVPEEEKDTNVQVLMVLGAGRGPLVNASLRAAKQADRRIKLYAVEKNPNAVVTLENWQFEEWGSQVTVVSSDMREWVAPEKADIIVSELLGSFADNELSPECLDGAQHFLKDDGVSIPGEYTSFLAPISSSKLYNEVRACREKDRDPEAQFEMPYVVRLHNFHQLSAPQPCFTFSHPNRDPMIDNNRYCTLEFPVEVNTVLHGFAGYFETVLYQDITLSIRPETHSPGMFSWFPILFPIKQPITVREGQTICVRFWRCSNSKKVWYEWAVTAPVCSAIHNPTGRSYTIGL

Maver1 [6] = assay: Antitumor activity against human Maver1 cells xenografted in SCID mouse assessed as tumor growth inhibition at 200 mg/kg, po BID administered for 21 days; assay type: functional; details: 504 h, read-out: TGI
[7] = Oral bioavailability in mouse at 10 mg/kg; assay type: ADME, organism-based; details: in vivo
[8] = Volume of distribution in mouse at 2 mg/kg, iv; assay type: ADME, organism-based; details: in vivo
Z-138 [9] = assay: Antitumor activity against human Z138 cells xenografted in SCID mouse assessed as tumor growth inhibition at 200 mg/kg, po BID administered for 21 days; assay type: functional; details: Z-138, po, 504 h, read-out: TGI
[10] = Plasma clearance in mouse at 2 mg/kg, iv; assay type: ADME, organism-based
[11] = biological target: PRMT5/MEP50 complex (Homo sapiens) (UniProt O14744+Q9BQA1); assay: (§1) Inhibition of human N-terminal FLAG-tagged PRMT5 (2 to end)/human N-terminal His-tagged MEP50 (2 to end) expressed in HEK293 cells at 50 uM using biotinylated H4 derived peptide as substrate preincubated for 15 mins followed by substrate addition measured after 60 mins ibn presence of [3H]SAM by liquid scintillation counting
PRMT5/MEP50 complex = PRMT5/MEP50 complex (Homo sapiens, UniProt O14744); assay: as §1, with “cells” for “cells at 50 uM”, “in” for “ibn”; assay type: cell-based
PRMT5/MEP50 complex, sequence (O14744 whole entry): as above
PRMT5/MEP50 complex, sequence (Q9BQA1 whole entry, further chain): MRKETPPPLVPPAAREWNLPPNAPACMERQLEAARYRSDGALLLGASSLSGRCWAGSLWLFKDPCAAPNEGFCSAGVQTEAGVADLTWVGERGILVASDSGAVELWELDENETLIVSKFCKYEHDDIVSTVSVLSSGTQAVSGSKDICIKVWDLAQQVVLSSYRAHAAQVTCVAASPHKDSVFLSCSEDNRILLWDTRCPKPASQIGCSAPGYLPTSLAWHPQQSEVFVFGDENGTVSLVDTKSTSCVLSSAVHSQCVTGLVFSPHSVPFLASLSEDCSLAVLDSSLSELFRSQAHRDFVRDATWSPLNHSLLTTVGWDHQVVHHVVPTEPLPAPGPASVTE

[12] = biological target: T1, Protein arginine N-methyltransferase 5; assay: Inhibition of PRMT5 (unknown origin) using H4R3 as substrate by HTRF assay
[13] = biological target: T1, Protein arginine N-methyltransferase 5; assay: Inhibition of human PRMT5 expressed in insect cells co-expressing His-tagged MEP50 using Ser-Gly-Arg-Gly- Lys-Gly-Gly-Lys-Gly-Leu-Gly-Lys-Gly-Gly-Ala-Lys-Arg-His-Arg-Lys-Val-NH2 peptide as substrate after 4 hrs in presence of SAM by Transcreene EPIGEN methyltransferase assays
[14] = Antiproliferative activity against human Th1 cells by trypan blue exclusion assay; assay type: functional, cell-based
[15] = Antiproliferative activity against human TH2 cells by trypan blue exclusion assay; assay type: functional, cell-based
[16] = biological target: T1, Protein arginine N-methyltransferase 5; assay: Inhibition of PRMT5 (unknown origin) at 50 uM by radioactive methylation assay

For OC(CNCc1c(OCc2ccccc2)ccc2ccccc12)c1ccccc1 (stereo not given), the EC50 (Maver1 [1]) was 12.7 µM, the EC50 (Z-138 [2]) was 12.7 µM and the EC50 (JeKo-1) was 10.5 µM.

Work on CCn1c2ccccc2c2cc(CNC3CCCc4ccccc43)ccc21 (stereo not given) yielded a concentration [3] of 3.57 µM, a concentration [4] of 7.88 µM and an IC50 [5] of 0.517 µM.

For O=C(NC[C@H](O)CN1CCc2ccccc2C1)c1cc(NC2COC2)ncn1, the inhibition in vivo at 200 mg/kg (Maver1 [6]) was > 93%, the bioavailability [7] was 69% and the Vd [8] was 1.7 L/kg. The inhibition in vivo at 200 mg/kg (Z-138 [9]) was > 93% and the clearance [10] was 30 mL/min/kg.

In the case of OCCNCc1c(OCc2ccc(Cl)cc2)ccc2ccccc12, the inhibition [11] is reported as 69% and the IC50 (PRMT5/MEP50 complex) is reported as 35.6 µM.

For O=C(NC[C@H](O)CN1CCCCC1)c1cc(NC2COC2)ncn1, the IC50 [12] was > 10 µM.

Compound O=C(NC[C@H](O)CN1CCc2ccccc2C1)c1ccc(C(=O)N2CCOCC2)cc1 has an IC50 [13] of 0.109 µM.

OCCNCc1cccc2ccccc12 gave an inhibition [11] of 2%.

In the case of CCn1c2ccc(Br)cc2c2cc(CNCc3ccccc3OC)ccc21, the IC50 [14] is reported as 1.1 µM and the IC50 [15] is reported as 4 µM.

Compound CCn1c2ccccc2c2cc(CNCc3ccccn3)ccc21 has an inhibition [16] of 7.8%.

In the case of CC(=O)N1CCC(Oc2nccc(C(=O)NC[C@@H](O)CNC3Cc4ccccc4C3)c2Cl)CC1, the IC50 [13] is reported as 0.105 µM.
